The subject of data set [1] is K562 (chronic myelogenous leukaemia). As to the kind of experiment: Effect on tumor cell lines, viable cell count by trypan blue exclusion (Latham et al.): K562. The format is cell-based. The settings on record: K562 chronic myelogenous leukaemia cells, viable cell count 96 hours after treatment. As for the experimental part: (§1) The effect of the compounds of the invention on tumor cells was determined by the assay described by Latham et al., Oncogene 12:827-837 (1996). Tumor cells DU145 (prostate cancer), K562 (chronic myelogenous leukaemia), BT20 (breast carcinoma), H157 (non small cell lung carcinoma), or DLD1 (colon carcinoma) were plated in 6-well dishes at a cell density of 1.0×10^5 cells per 35-mm^2 well. […] The total number of viable cells was determined 96 hours later by trypsinizing the wells and counting the number of viable cells, as determined by trypan blue exclusion, using a hemacytometer. Normal HFL cells were treated with the same compounds under the same conditions of concentration and time.

For data set [2], the system named is DU145 (prostate cancer). As to the kind of experiment: Effect on tumor cell lines, viable cell count by trypan blue exclusion (Latham et al.): DU145. The format is cell-based. The settings on record: DU145 prostate cancer cells, viable cell count 96 hours after treatment. As for the experimental part: as §1

Turning to `N#C/C(=C\c1c[nH]c2ccccc12)S(=O)(=O)Cc1ccc(Cl)cc1` [Example 68], the melting point lay in the range of 200 to 205 °C. Also, the IC50 in data set [1] (Homo sapiens, K562, 96 h) was in the range of 10 to 25 µM. The IC50 in data set [2] (Homo sapiens, DU-145, 96 h) lay within 25 to 50 µM.
In turn, `N#C/C(=C\c1ccccc1)S(=O)(=O)Cc1ccc(Cl)cc1` [Example 69] gave a melting point of 142 to 157 °C. This molecule also had an IC50 in data set [1] (Homo sapiens, K562, 96 h) of over 100 µM. In addition, the IC50 in data set [2] (Homo sapiens, DU-145, 96 h) was over 100 µM.
Molecule `N#C/C(=C\c1ccccc1OCc1ccccc1)S(=O)(=O)Cc1ccc(Cl)cc1` [Example 70] came in with a melting point of 129 to 137 °C. The IC50 in data set [1] (Homo sapiens, K562, 96 h) is over 100 µM. In data set [2] (Homo sapiens, DU-145, 96 h), this molecule yielded an IC50 of over 100 µM.
`N#C/C(=C\c1c[nH]c2ccc(Br)cc12)S(=O)(=O)Cc1ccc(Cl)cc1Cl` [Example 71]: the melting point is 264 to 275 °C. The IC50 in data set [1] (Homo sapiens, K562, 96 h) fell in the range of 50 to 100 µM. In data set [2] (Homo sapiens, DU-145, 96 h), this molecule returned an IC50 of 50 to 100 µM.
Molecule `N#C/C(=C\c1c[nH]c2ccc(Br)cc12)S(=O)(=O)Cc1ccc(Cl)cc1` [Example 72] gave a melting point of 240 to 250 °C. Besides, in data set [1] (Homo sapiens, K562, 96 h), the IC50 is over 100 µM. Further, in data set [2] (Homo sapiens, DU-145, 96 h), the IC50 is over 100 µM.
`N#C/C(=C\c1c[nH]c2ccc(Cl)cc12)S(=O)(=O)Cc1ccc(Cl)cc1` [Example 73] came in with a melting point of 172 to 182 °C. The same molecule registered an IC50 in data set [1] (Homo sapiens, K562, 96 h) of 10 to 25 µM. Also, the IC50 in data set [2] (Homo sapiens, DU-145, 96 h) lay in the range of 25 to 50 µM.
With `CCOc1cc(/C=C(\C#N)S(=O)(=O)Cc2ccc(Cl)cc2)ccc1O` [Example 74], the melting point is 150 to 165 °C. This molecule gave an IC50 in data set [1] of 50 to 100 µM. The IC50 in data set [2] lay within 50 to 100 µM.
With `N#C/C(=C\c1c[nH]c2ccc(Cl)cc12)S(=O)(=O)Cc1ccc(Cl)cc1Cl` [Example 75], the melting point was in the range of 282 to 292 °C. In data set [1], the IC50 was in the range of 50 to 100 µM. The IC50 in data set [2] is 50 to 100 µM.
As for `N#C/C(=C\c1c[nH]c2ccc(Cl)cc12)S(=O)(=O)Cc1ccc(F)cc1` [Example 77], the melting point was in the range of 250 to 265 °C. In data set [1] (Homo sapiens, K562, 96 h), this molecule came in with an IC50 of 50 to 100 µM. In data set [2] (Homo sapiens, DU-145, 96 h), this molecule returned an IC50 of 50 to 100 µM.
The molecule `N#C/C(=C\c1c[nH]c2ccc(Br)cc12)S(=O)(=O)Cc1ccc(F)cc1` [Example 78] came in with a melting point of 260 to 270 °C. The molecule also came in with an IC50 in data set [1] (Homo sapiens, K562, 96 h) of 50 to 100 µM. Also, the IC50 in data set [2] (Homo sapiens, DU-145, 96 h) was in the range of 50 to 100 µM.
Molecule `COc1cc(OC)c(/C=C(\C#N)S(=O)(=O)Cc2ccc(F)cc2)c(OC)c1` [Example 79] showed a melting point of 182 to 192 °C. The IC50 in data set [1] (Homo sapiens, K562, 96 h) fell in the range of 50 to 100 µM. For the same molecule, the IC50 in data set [2] (Homo sapiens, DU-145, 96 h) is over 100 µM.
For `COc1ccc(/C=C(\C#N)S(=O)(=O)Cc2ccc(F)cc2)cc1O` [Example 80] the same measures were 193 to 205 °C, 50 to 100 µM and over 100 µM.
For `N#C/C(=C\c1c[nH]c2ccccc12)S(=O)(=O)Cc1ccc(F)cc1` [Example 81] the same measures were 140 to 152 °C, 50 to 100 µM and 50 to 100 µM.
In the case of `N#C/C(=C\c1ccc(Br)cc1)S(=O)(=O)Cc1ccc(F)cc1` [Example 82], the melting point was in the range of 155 to 168 °C. The IC50 in data set [1] (Homo sapiens, K562, 96 h) was over 100 µM. In data set [2] (Homo sapiens, DU-145, 96 h), the IC50 was over 100 µM.
In the case of `N#C/C(=C\c1ccc(O)cc1O)S(=O)(=O)Cc1ccc(F)cc1` [Example 83], the melting point lay within 225 to 234 °C. Moreover, the IC50 in data set [1] (Homo sapiens, K562, 96 h) lay within 50 to 100 µM. Also, the IC50 in data set [2] (Homo sapiens, DU-145, 96 h) lay within 50 to 100 µM.
Turning to `CC(=O)Oc1ccc(/C=C(\C#N)S(=O)(=O)Cc2ccc(F)cc2)cc1` [Example 84], the melting point is 116 to 125 °C. The molecule also came in with a concentration for half-maximal inhibition (IC50) in data set [1] (Homo sapiens, K562, 96 h) of 1 to 10 µM. For the same molecule, the IC50 in data set [2] (Homo sapiens, DU-145, 96 h) lay within 1 to 10 µM.
Regarding `N#C/C(=C\c1ccc(Cl)cc1Cl)S(=O)(=O)Cc1ccc(F)cc1` [Example 85], the melting point was in the range of 153 to 163 °C. The molecule also displayed an IC50 in data set [1] (Homo sapiens, K562, 96 h) of 50 to 100 µM. In addition, the IC50 in data set [2] (Homo sapiens, DU-145, 96 h) is over 100 µM.
`COc1cc(/C=C(\C#N)S(=O)(=O)Cc2ccc(F)cc2)cc(OC)c1` [Example 86] returned a melting point of 120 to 123 °C. In data set [1] (Homo sapiens, K562, 96 h), the IC50 was over 100 µM. The IC50 in data set [2] (Homo sapiens, DU-145, 96 h) is over 100 µM.
The molecule `Cc1ccc(/C=C(\C#N)S(=O)(=O)Cc2ccc(F)cc2)cc1C` [Example 88] came in with a melting point of 122 to 132 °C. The IC50 in data set [1] (Homo sapiens, K562, 96 h) lay within 10 to 25 µM. The molecule further came in with an IC50 in data set [2] (Homo sapiens, DU-145, 96 h) of 25 to 50 µM.
In turn, `N#C/C(=C\c1ccc(Cl)cc1)S(=O)(=O)Cc1ccc(F)cc1` [Example 89] displayed a melting point of 150 to 155 °C. Moreover, the IC50 in data set [1] (Homo sapiens, K562, 96 h) lay within 50 to 100 µM. In addition, in data set [2] (Homo sapiens, DU-145, 96 h), the IC50 lay in the range of 50 to 100 µM.
Consider `Cc1ccc(C)c(/C=C(\C#N)S(=O)(=O)Cc2ccc(F)cc2)c1` [Example 90], for which the melting point was 122 to 130 °C. Further, in data set [1] (Homo sapiens, K562, 96 h), the IC50 was 50 to 100 µM. In data set [2] (Homo sapiens, DU-145, 96 h), this molecule showed an IC50 of over 100 µM.
Consider `N#C/C(=C\c1c[nH]c2ccc(Cl)cc12)S(=O)(=O)Cc1ccc(Cl)cc1Cl` [Example 91], for which the melting point fell in the range of 150 to 161 °C. In data set [1], the IC50 fell in the range of 10 to 25 µM. In addition, the IC50 in data set [2] was 10 to 25 µM.

The values above are taken from patent US20090191193A1, “Aryl Vinyl Sulfides, Sulfones, Sulfoxides and Sulfonamides, Derivatives Thereof and Therapeutic Uses Thereof” (TEMPLE UNIVERSITY-OF THE COMMONWEALTH SYSTEM OF HIGHER …, priority 2006, published 2009).
